# Legend:
# [1] = target: Integrin alpha-V/beta-3 (Homo sapiens, UniProt P05106+P06756); assay: Inhibition of fibrinogen binding to alphaV-beta3 integrin receptor; assay type: protein-complex assay
# [2] = target: Integrin alpha-IIb/beta-3 (Homo sapiens, UniProt P05106+P08514); assay: Inhibition of alpha IIb beta3 integrin receptor in human platelet rich plasma
# [3] = target: Integrin alpha-5/beta-1 (Homo sapiens, UniProt P05556+P08648); assay: Inhibition of alpha5-beta1 integrin receptor in ELISA; assay type: protein-complex assay
# Integrin alpha-5/beta-1, sequence (P05556 21-798 limits assumed): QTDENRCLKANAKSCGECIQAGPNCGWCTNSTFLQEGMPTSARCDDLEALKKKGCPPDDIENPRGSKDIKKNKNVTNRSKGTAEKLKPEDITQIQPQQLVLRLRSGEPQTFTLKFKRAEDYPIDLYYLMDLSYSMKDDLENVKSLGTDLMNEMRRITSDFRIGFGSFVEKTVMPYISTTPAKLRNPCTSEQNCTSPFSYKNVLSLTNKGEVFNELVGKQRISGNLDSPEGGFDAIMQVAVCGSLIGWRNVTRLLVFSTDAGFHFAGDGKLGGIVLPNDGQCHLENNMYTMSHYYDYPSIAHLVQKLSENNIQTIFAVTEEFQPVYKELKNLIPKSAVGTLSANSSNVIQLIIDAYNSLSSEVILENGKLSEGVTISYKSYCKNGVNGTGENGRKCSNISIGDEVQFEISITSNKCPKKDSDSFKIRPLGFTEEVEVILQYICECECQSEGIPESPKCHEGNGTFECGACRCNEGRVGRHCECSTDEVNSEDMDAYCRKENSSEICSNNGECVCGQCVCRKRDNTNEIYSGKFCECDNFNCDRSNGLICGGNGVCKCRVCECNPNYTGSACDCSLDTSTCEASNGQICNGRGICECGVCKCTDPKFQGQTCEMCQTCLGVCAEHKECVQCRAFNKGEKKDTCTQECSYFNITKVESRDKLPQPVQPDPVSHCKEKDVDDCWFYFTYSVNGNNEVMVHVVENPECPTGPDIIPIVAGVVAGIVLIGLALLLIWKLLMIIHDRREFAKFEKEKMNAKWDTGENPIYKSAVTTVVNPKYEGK
# Integrin alpha-5/beta-1, sequence (P08648 42-894 limits assumed): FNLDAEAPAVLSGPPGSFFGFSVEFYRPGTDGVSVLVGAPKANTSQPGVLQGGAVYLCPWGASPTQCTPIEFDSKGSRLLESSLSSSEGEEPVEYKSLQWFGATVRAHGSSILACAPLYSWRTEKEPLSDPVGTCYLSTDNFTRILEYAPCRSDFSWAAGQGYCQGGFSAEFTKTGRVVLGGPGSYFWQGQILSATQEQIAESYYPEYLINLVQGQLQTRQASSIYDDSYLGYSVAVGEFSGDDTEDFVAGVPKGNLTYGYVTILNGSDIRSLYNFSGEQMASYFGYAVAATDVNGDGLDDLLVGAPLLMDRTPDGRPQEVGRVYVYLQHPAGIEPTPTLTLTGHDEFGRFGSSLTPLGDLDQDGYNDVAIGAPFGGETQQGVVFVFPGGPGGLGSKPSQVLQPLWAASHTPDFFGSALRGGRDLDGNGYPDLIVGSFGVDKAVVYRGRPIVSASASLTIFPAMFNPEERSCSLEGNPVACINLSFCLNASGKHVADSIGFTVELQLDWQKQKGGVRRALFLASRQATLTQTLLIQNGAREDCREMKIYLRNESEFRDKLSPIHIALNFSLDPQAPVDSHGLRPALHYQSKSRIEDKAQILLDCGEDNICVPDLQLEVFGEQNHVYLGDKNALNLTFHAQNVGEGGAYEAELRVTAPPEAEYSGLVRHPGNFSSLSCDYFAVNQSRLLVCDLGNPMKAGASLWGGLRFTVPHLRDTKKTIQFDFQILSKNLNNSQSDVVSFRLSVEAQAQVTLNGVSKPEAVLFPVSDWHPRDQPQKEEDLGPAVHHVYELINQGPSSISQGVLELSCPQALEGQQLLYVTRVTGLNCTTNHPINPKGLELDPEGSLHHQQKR
# Integrin alpha-5/beta-1, sequence (P08648 895-1049 limits assumed): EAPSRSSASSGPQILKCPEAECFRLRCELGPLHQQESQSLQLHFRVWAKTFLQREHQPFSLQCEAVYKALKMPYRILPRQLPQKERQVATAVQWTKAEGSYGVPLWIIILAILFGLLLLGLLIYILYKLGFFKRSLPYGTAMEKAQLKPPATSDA
# Integrin alpha-V/beta-3, sequence (P05106 27-788 limits assumed): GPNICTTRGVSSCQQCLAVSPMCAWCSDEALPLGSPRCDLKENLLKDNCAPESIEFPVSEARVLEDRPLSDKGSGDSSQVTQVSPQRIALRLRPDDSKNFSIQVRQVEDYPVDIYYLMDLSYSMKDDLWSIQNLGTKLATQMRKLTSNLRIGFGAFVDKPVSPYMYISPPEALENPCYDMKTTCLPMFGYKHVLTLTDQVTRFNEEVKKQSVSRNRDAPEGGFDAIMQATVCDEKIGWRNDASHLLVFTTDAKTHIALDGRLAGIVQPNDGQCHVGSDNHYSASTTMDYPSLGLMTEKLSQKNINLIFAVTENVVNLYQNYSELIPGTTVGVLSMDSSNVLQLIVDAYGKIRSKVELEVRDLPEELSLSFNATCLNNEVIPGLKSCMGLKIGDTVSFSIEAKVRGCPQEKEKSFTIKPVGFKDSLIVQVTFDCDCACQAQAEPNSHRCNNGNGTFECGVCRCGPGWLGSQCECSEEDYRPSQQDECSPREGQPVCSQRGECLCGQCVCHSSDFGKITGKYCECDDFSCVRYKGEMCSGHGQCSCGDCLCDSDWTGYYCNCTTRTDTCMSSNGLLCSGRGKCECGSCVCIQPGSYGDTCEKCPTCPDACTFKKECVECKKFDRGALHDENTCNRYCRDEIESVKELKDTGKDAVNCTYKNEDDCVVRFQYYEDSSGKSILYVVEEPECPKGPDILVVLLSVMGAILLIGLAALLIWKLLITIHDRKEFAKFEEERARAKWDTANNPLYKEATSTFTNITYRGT
# Integrin alpha-V/beta-3, sequence (P06756 31-889 limits assumed): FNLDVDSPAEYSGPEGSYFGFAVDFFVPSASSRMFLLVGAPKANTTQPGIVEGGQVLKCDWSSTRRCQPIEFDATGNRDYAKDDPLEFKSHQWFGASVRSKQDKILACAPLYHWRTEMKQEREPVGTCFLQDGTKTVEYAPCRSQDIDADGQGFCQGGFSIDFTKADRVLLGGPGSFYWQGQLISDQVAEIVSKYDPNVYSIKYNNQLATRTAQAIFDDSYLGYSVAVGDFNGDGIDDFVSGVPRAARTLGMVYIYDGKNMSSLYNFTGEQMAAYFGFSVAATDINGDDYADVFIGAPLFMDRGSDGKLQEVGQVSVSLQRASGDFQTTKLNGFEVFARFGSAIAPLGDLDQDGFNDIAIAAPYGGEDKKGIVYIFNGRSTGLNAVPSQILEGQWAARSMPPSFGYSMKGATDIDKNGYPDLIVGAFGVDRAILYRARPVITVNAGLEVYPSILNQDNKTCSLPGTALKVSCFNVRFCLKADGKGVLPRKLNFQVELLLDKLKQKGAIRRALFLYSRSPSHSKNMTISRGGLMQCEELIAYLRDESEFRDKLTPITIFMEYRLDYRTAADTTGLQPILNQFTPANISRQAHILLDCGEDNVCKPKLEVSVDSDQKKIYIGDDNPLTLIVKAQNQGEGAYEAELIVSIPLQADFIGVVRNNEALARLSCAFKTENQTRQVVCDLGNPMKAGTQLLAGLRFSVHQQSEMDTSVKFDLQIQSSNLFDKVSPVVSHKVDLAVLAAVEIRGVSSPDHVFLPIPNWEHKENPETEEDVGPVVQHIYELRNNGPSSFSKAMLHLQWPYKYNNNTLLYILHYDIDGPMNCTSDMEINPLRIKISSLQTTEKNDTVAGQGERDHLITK
# Integrin alpha-V/beta-3, sequence (P06756 891-1048 limits assumed): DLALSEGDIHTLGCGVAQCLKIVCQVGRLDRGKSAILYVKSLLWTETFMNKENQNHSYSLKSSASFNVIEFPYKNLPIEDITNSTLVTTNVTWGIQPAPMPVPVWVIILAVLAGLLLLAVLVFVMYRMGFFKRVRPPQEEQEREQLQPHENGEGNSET
# Integrin alpha-IIb/beta-3, sequence (P05106 27-788 limits assumed): as the sequence (P05106 27-788 limits assumed) above
# Integrin alpha-IIb/beta-3, sequence (P08514 32-887 limits assumed): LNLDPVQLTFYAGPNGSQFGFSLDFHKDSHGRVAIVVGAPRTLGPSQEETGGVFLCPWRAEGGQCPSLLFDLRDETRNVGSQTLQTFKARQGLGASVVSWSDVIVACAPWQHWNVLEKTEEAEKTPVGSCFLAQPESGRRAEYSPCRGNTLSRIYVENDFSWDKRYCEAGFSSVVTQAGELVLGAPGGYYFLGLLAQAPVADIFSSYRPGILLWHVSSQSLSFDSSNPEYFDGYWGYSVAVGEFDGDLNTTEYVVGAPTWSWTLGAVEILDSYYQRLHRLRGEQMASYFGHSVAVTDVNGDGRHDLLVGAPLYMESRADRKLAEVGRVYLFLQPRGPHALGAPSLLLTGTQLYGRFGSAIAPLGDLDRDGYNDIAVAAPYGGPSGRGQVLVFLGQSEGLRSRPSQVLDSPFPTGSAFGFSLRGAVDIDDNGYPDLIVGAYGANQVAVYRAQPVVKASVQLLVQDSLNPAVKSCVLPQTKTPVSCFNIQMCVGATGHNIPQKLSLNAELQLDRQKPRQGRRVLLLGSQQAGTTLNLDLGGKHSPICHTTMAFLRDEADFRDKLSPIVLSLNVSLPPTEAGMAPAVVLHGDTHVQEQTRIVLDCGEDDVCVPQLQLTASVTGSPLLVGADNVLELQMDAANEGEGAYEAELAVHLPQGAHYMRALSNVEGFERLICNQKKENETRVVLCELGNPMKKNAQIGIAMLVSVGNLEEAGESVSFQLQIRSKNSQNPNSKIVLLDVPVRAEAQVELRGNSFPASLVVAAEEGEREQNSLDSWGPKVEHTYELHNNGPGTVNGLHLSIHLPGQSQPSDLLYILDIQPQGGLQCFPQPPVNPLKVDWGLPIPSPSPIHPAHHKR
# Integrin alpha-IIb/beta-3, sequence (P08514 891-1039 limits assumed): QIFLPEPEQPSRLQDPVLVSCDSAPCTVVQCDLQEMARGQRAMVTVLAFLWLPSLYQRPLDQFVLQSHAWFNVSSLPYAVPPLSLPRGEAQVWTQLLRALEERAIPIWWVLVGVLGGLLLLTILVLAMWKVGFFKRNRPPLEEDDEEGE
SMILES,IC50 [1] [nM],IC50 [2] [nM],IC50 [3] [nM]
CCCCOC(=O)N1C[C@@]2(CC(C(=O)NC[C@H](NS(=O)(=O)c3c(C)cc(C)cc3C)C(=O)O)=NO2)C[C@H]1CNc1nc2ccccc2[nH]1,87,> 100000,
COC(=O)N1C[C@@]2(CC(C(=O)NC[C@H](NS(=O)(=O)c3c(C)cc(C)cc3C)C(=O)O)=NO2)C[C@H]1CNc1ncc[nH]1,57,7300,
Cc1cc(C)c(S(=O)(=O)N[C@@H](CNC(=O)C2=NO[C@]3(C2)C[C@@H](CNC2NC=CN2)N(C(=O)OCc2ccccc2)C3)C(=O)O)c(C)c1,57,7300,13
Cc1cc(C)c(S(=O)(=O)N[C@@H](CNC(=O)C2=NO[C@]3(C2)C[C@@H](CNc2ccccn2)N(C(=O)OCc2ccccc2)C3)C(=O)O)c(C)c1,49,> 100000,
Cc1cc(C)c(S(=O)(=O)N[C@@H](CNC(=O)C2=NO[C@]3(C2)C[C@@H](CNc2ncc[nH]2)N(C(=O)OCc2ccccc2)C3)C(=O)O)c(C)c1,41,34000,
Cc1cc(C)c(S(=O)(=O)N[C@@H](CNC(=O)C2=NO[C@]3(CN[C@H](CNc4ncc[nH]4)C3)C2)C(=O)O)c(C)c1,180,1400,
CCCCOC(=O)N1C[C@@]2(CC(C(=O)NC[C@H](NS(=O)(=O)c3c(C)cc(C)cc3C)C(=O)O)=NO2)C[C@H]1CNc1ncc[nH]1,130,11000,
"Cc1cc(C)c(S(=O)(=O)N[C@@H](CNC(=O)C2=NOC3(C2)C[C@@H](CNC2NC=CN2)N(C(=O)OCc2ccccc2)C3)C(=O)O)c(C)c1 (single isomer, unassigned)",> 1000,9200,1200
Cc1cc(C)c(S(=O)(=O)N[C@@H](CNC(=O)C2=NO[C@]3(C2)C[C@@H](CNc2ncc[nH]2)N(C(=O)OCc2cccnc2)C3)C(=O)O)c(C)c1,32,5600,
COC(=O)N1C[C@@]2(CC(C(=O)NC[C@H](NS(=O)(=O)c3c(C)cc(C)cc3C)C(=O)O)=NO2)C[C@H]1CNc1nc2ccccc2[nH]1,34,> 100000,

# Reference: ChEMBL document CHEMBL1144453, “Ligand binding analysis for human alpha5beta1 integrin: strategies for designing new alpha5beta1 integrin antagonists” (J Med Chem, 2005)
